According to patent publication US5319085A, “Quinoline derivative having serotonin-3 receptor antagonizing activity” (priority 1990, dated 1994):

Experiments:
[1] = test system: ddY strain male mice; experiment: Acute toxicity, minimum lethal dose; format: in vivo; conditions: mortality for 7 days
Protocol: The test Compound was orally and intraperitoneally administered to ddY strain male mice weighing 20 to 25 g. MLD (Minimum Lethal Dose) was determined by observing the mortality for 7 days after the administration.

[2] = test system: 5HT3 receptor; experiment: 5HT3 receptor binding test, [3H] quipazine, NG108-15 cell membrane fraction; parameters: species or system rat; conditions: for Inhibition Rate (%) (Concentration 10^-7 M) / Inhibition Rate (%) (Concentration 10^-8 M): inhibition of 2 nM [3H] quipazine binding; for Ki: [3H] quipazine, Cheng Prusoff equation, 37° C., 60 minutes
Protocol: Using rat neuroblastoma-glyoma NG108-15 cell membrane fraction, the binding activities of the test compounds to 5HT3 receptor were examined.
A membrane fraction of NG108-15 cells was prepared according to the method of Neijt et al. [Naunyn-Schmiedeberg's Arch. Parmacol. 337, 493-499 (1988)].
The receptor binding experiment was performed using [^3 H] quipazine [J. Neurochem., 52, 1787 (1989)], a high affinity ligand to 5HT3 receptor.
A membrane fraction obtained from 4×10^5 NG108-15 cells was suspended in 1 ml of 20 mM Tris-hydrochloride buffer (pH 7.5) containing 154 mM sodium chloride. Then, 2 nM [^3 H] quipazine (2519.7 GBq/mmol; Du Pont Co., Ltd.) and various concentrations of the test compound were added to the suspension followed by incubating at 37° C. for 60 minutes. Then, 4 ml of an ice-cooled buffer was added to terminate the reaction and then the mixture was filtered through CF/C glass fiber filter (Whatmann Co., Ltd.). The filter was washed with the buffer, and put in a scintillation vial. Scintisol EX-H (Wako Pure Chemicals, Inc.) was added to the scintillation vial. Radioactivity on the filter was counted in a liquid scintillation counter.
An inhibition rate of the [^3 H] quipazine binding for the test compound was estimated according to the equation; [formula]
Ki values were estimated based on the resultant inhibition rates according to the Cheng Prusoff equation.
In this test, the comparison was made between Compound (I) and Compound C disclosed in Japanese Published Unexamined Patent Application No. 72886/85 as the reference compound.

[3] = test system: Cisplatin-induced vomiting; experiment: Activity against Cisplatin-induced vomiting; format: in vivo, Suncus mirinus; conditions: for Number of Vomiting (mean ± S.E.M.): 5 to 120 minutes; for Latency (min.) (mean ± S.E.M.): time to first vomiting
Protocol: Female and male Suncus mirinus animals weighing 23 to 68 g were used, one group consisting of 5 to 10 animals. According to the method of Matsuki et al. (Japan J. Pharmacol., 48, 303 (1988)], the animals were isolated in metal mesh cage (one animal/one cage). One hour after, the test compound or physiological saline (control) was intraperitoneally administered (i.p.) in a volume of 10 ul/g of body weight. Further 30 minutes after administration of the test compound, Cisplatin (20 or 40 mg/kg) was intraperitoneally administered. After administration of Cisplatin, a time period (latency) for the first vomiting and the number of frequencies of vomiting caused in the period of 5 to 120 minutes after administration, were determined. The latency and the number of frequencies in the test compound administered group were compared with those in the control group. The test of significance was performed by Student's t-test.

[4] = 0.1 mg/kg i.p., Cisplatin 40 mg/kg
[5] = 0.3 mg/kg i.p., Cisplatin 40 mg/kg
[6] = 1.0 mg/kg i.p., Cisplatin 40 mg/kg
[7] = 10.0 mg/kg i.p., Cisplatin 40 mg/kg
[8] = 0.01 mg/kg i.p., Cisplatin 20 mg/kg
[9] = 0.03 mg/kg i.p., Cisplatin 20 mg/kg
[10] = 0.1 mg/kg i.p., Cisplatin 20 mg/kg
[11] = 0.3 mg/kg i.p., Cisplatin 20 mg/kg
[12] = 1.0 mg/kg i.p., Cisplatin 20 mg/kg

Structure (SMILES) | MLD (Minimum Lethal Dose) ([1]; i.p.) | MLD (Minimum Lethal Dose) ([1]; p.o.) | Inhibition Rate (%) (Concentration 10^-7 M) [2] | Ki [2] | Inhibition Rate (%) (Concentration 10^-8 M) [2] | further results
CN1[C@@H]2CC[C@H]1C[C@@H](OC(=O)c1cnc3ccccc3c1O)C2 [5S'a, Endo-(8-methyl-8-azabicyclo[3.2.1]oct-3-yl) 4-hydroxy-3-quinolinecarboxylate] | > 300 mg/kg | > 100 mg/kg | 107% | 6100 pM | – | Number of Vomiting (mean ± S.E.M.) [3, 4]: 29.6 ± 3.5; Latency (min.) (mean ± S.E.M.) [3, 4]: 41.4 ± 0.7 min; Number of Vomiting (mean ± S.E.M.) [3, 5]: 13.2 ± 4.8; Latency (min.) (mean ± S.E.M.) [3, 5]: 69.6 ± 13.4 min; Number of Vomiting (mean ± S.E.M.) [3, 6]: 4.3 ± 2.4; Latency (min.) (mean ± S.E.M.) [3, 6]: 103.5 ± 10.3 min; Number of Vomiting (mean ± S.E.M.) [3, 7]: 7.6 ± 7.6; Latency (min.) (mean ± S.E.M.) [3, 7]: 105.1 ± 14.9 min
CN1[C@@H]2CCC[C@H]1C[C@@H](OC(=O)c1cnc3ccccc3c1)C2 [CSa, Endo-(9-methyl-9-azabicyclo[3.3.1]non-3-yl) 3-quinolinecarboxylate, reference compound] | – | – | 84% | 29000 pM | 12% | –
CCCCOc1cc(C(=O)O[C@H]2C[C@H]3CC[C@@H](C2)N3C)c2ccccc2n1 [Compound 1Sa, Endo-(8-methyl-8-azabicyclo[3.2.1]oct-3-yl) 2-n-butoxy-4-quinolinecarboxylate] | 200 mg/kg | 100 mg/kg | 104% | 390 pM | 99% | –
CCCOc1cc(C(=O)O[C@H]2C[C@H]3CC[C@@H](C2)N3C)c2ccccc2n1 [Compound 2Sa, Endo-(8-methyl-8-azabicyclo[3.2.1]oct-3-yl) 2-n-propoxy-4-quinolinecarboxylate] | 100 mg/kg | 100 mg/kg | 104% | 320 pM | 101% | –
CC(C)Oc1cc(C(=O)O[C@H]2C[C@H]3CC[C@@H](C2)N3C)c2ccccc2n1 [Compound 3Sa, Endo-(8-methyl-8-azabicyclo[3.2.1]oct-3-yl) 2-isopropoxy-4-quinolinecarboxylate] | 200 mg/kg | > 100 mg/kg | 104% | 310 pM | 101% | –
COc1cc(C(=O)O[C@H]2C[C@H]3CC[C@@H](C2)N3C)c2ccccc2n1 [Compound 4Sa, Endo-(8-methyl-8-azabicyclo[3.2.1]oct-3-yl) 2-methoxy-4-quinolinecarboxylate] | 200 mg/kg | 50 mg/kg | 104% | 580 pM | 98% | –
CN1[C@@H]2CC[C@H]1C[C@@H](NC(=O)c1cnc3ccccc3c1O)C2 [Compound 6Sa, Endo-N-(8-methyl-8-azabicyclo[3.2.1]oct-3-yl)-4-hydroxy-3-quinolinecarboxamide] | > 300 mg/kg | > 100 mg/kg | 101% | 2100 pM | 89% | Number of Vomiting (mean ± S.E.M.) [3, 8]: 10.0 ± 4.0; Latency (min.) (mean ± S.E.M.) [3, 8]: 58.2 ± 9.9 min; Number of Vomiting (mean ± S.E.M.) [3, 9]: 8.2 ± 1.4; Latency (min.) (mean ± S.E.M.) [3, 9]: 52.6 ± 4.2 min; Number of Vomiting (mean ± S.E.M.) [3, 10]: 7.4 ± 2.6; Latency (min.) (mean ± S.E.M.) [3, 10]: 85.7 ± 9.7 min; Number of Vomiting (mean ± S.E.M.) [3, 11]: 0.0 ± 0; Latency (min.) (mean ± S.E.M.) [3, 11]: 120.0 ± 0 min; Number of Vomiting (mean ± S.E.M.) [3, 12]: 0.0 ± 0; Latency (min.) (mean ± S.E.M.) [3, 12]: 120.0 ± 0 min
CC(C)COc1cc(C(=O)O[C@H]2C[C@H]3CC[C@@H](C2)N3C)c2ccccc2n1 [Compound 7Sa, Endo-(8-methyl-8-azabicyclo[3.2.1]oct-3-yl) 2-isobutoxy-4-quinolinecarboxylate] | 300 mg/kg | > 100 mg/kg | 108% | 440 pM | 101% | –
CCCCCOc1cc(C(=O)O[C@H]2C[C@H]3CC[C@@H](C2)N3C)c2ccccc2n1 [Compound 8Sa, Endo-(8-methyl-8-azabicyclo[3.2.1]oct-3-yl) 2-n-pentyloxy-4-quinolinecarboxylate] | > 300 mg/kg | > 100 mg/kg | 97% | 860 pM | 94% | –
CCCCCCOc1cc(C(=O)O[C@H]2C[C@H]3CC[C@@H](C2)N3C)c2ccccc2n1 [Compound 9Sa, Endo-(8-methyl-8-azabicyclo[3.2.1]oct-3-yl) 2-n-hexyloxy-4-quinolinecarboxylate] | > 300 mg/kg | 50 mg/kg | 97% | 3200 pM | 74% | –
CCOc1cc(C(=O)O[C@H]2C[C@H]3CC[C@@H](C2)N3C)c2ccccc2n1 [Compound 10Sa, Endo-(8-methyl-8-azabicyclo[3.2.1]oct-3-yl) 2-ethoxy-4-quinolinecarboxylate] | 100 mg/kg | 50 mg/kg | 99% | 880 pM | 96% | –
